In patent US9925153B2, “Therapeutic agents for skin diseases and conditions” (STC.UNM, priority 2013, dated 2018):
Entries after “also recorded” stand apart in the source; their conditions may differ. Like-named read-outs stand apart in the source and are kept apart here.

What was measured:
NF-κB [1] = test: Inhibition of TNFα-induced activation of NF-κB, 293T/NF-κB-luc luciferase reporter cells; assay type: cell-based, human; conditions: for Activity as inhibitor of TNFα-induced activation of NF-κB in the screen, in words: screened at 15 μM, compared to resveratrol; for IC50: Homo sapiens, HEK-293T
Protocol: The cells were maintained in Dulbecco's Modified Eagle's Medium (DMEM—high glucose containing 4 mM glutamine) supplemented with 10% fetal bovine serum (FBS), 1 mM sodium pyruvate, 100 units/ml penicillin, 100 μg/ml streptomycin and 100 μg/ml hygromycin (Gibco/Invitrogen, Carlsbad, Calif.) to maintain cell selection. […] The following day cells were fed fresh media 1 hour prior to treatment. […] Plate wells were gently washed with phosphate buffered saline, pH 7.4, and lysed with 1× passive lysis buffer (Promega, Madison, Wis.). The subsequent lysates were analyzed with the Luciferase Assay System (Promega) utilizing a TD-20/20 luminometer (Turner Designs, Sunnyvale, Calif.). The firefly luciferase relative light units were normalized to protein (mg/ml) with BCA™ Protein Assay Kit (Pierce, Rockford, Ill.) and standardized to percent of control (TNFα control).

COX-2 mRNA = test: Inhibition of LPS-induced COX-2 mRNA expression in BV-2 microglial cells (qRT-PCR); assay type: cell-based, mouse; conditions: BV-2 cells, LPS 0.2 μg/ml, 24 hours; for Inhibition of LPS-induced COX-2 mRNA, in words: 0.15 μM
AP-1 = test: Inhibition of TPA-induced activation of AP-1, 293T/AP-1-luc luciferase reporter cells; assay type: cell-based, human; conditions: for IC50: Homo sapiens
Protocol: An AP-1 reporter stable cell line derived from human 293T embryonic kidney cells transfected with a luciferase reporter construct containing three AP-1 binding sites in the promoter (293T/AP-1-luc, Panomics, Inc., Redwood City, Calif.) was grown in a humidified atmosphere at 37° C. in 5% CO2/95% air. The cells were maintained in Dulbecco's Modified Eagle's Medium (DMEM—high glucose containing 4 mM glutamine) supplemented with 10% fetal bovine serum (FBS), 1 mM sodium pyruvate, 100 units/ml penicillin, 100 μg/ml streptomycin and 100 μg/ml hygromycin (Gibco/Invitrogen, Carlsbad, Calif.) to maintain cell selection. One day prior to treatment, the 293T/AP-1-luc cells were plated into 24-well cell culture plates (Costar, Cambridge, Mass.) in the above media without hygromycin. The following day, the cells, which were at approximately 60% confluency, were fed fresh media with or without TPA, 10 ng/ml, (Calbiochem) and immediately treated with curcumin or analog prepared in DMSO stock solutions. The cells were placed again in a humidified atmosphere at 37° C. in 5% CO2/95% air for 24 hours. Plate wells were gently washed with phosphate buffered saline, pH 7.4, and lysed with Ix passive lysis buffer (Promega, Madison, Wis.). The subsequent lysates were analyzed with the Luciferase Assay System (Promega) utilizing a TD-20/20 luminometer (Turner Designs, Sunnyvale, Calif.). The firefly luciferase relative light units were normalized to protein (mg/ml) with BCA Protein Assay Kit (Pierce, Rockford, Ill.) and standardized to percent of control (TPA control).

[2] = TRAP anti-oxidant assay (quenching of ABTS radical cation)
Text: (§1) The total radical-trapping anti-oxidant parameter assay (TRAP assay) measures the ability of an analog to react with the pre-formed radical monocation of 2,2′-azinobis-(3-ethylbenzothiazoline-6-sulfonic acid) (ABTS.^+). The ferric reducing/anti-oxidant power assay (FRAP assay) measures the ability of an analog to reduce a ferric tripyridyltriazine complex.
(§2) In both colorimetric assays, the vitamin E analog Trolox was used as a control.
(§3) The anti-oxidant activities of certain stilbene analogs according to the present invention were determined using two standard assays. See, Schlesier, et al., Free Rad Res. 2002; 36:177-187. The total radical-trapping anti-oxidant parameter assay (TRAP assay) measures the ability of an analog to react with the pre-formed radical monocation of 2,2′-azinobis-(3-ethylbenzothiazoline-6-sulfonic acid) (ABTS.^+). See, Re, et al., Free Rad Biol Med, 26:1231-1237 (1999). […] The activities of curcumin and analogs were determined by their abilities to quench the color of the radical cation. […] The ferric complex of 2,4,6-tripyridyl-s-triazine was prepared at acidic pH, and the anti-oxidant activities of curcumin and analogs were determined by their abilities to reduce the ferric complex to the ferrous complex, monitored by formation of the ferrous complex at 593 nm. […]

[3] = FRAP anti-oxidant assay (reduction of ferric tripyridyltriazine complex)
Text: as §1, §2, §3

[4] = Treatment of dogs with inflammatory skin conditions with LD55; assay type: in vivo, dog
Text: (§4) Table 3 summarizes the results from consecutive treatment with LD55 of dogs and cats with inflammatory skin conditions, where LD55 was applied as a 1% lotion.

[5] = Treatment of cats with inflammatory skin conditions with LD55; assay type: in vivo, cat; conditions: for outcome: Feline
Text: as §4

[6] = transgenic model of Alzheimer's disease (ref. 10); cited from earlier work
NF-κB [7] = conditions: literature (ref. 35); cited from earlier work
[8] = 7 h, 293T/NF-κB-luc cells, TNFα 20 ng/ml, 7 hours, triplicate, read-out: IC50 for inhibition of the TNFα-induced activation of NFκB

COc1ccc(/C=C/c2cccc(OC)c2OC)cc1 [6o, (E)-2,3,4′-Trimethoxystilbene]
Activity as inhibitor of TNFα-induced activation of NF-κB in the screen, in words (NF-κB [1]): especially active

Oc1ccc(/C=C/c2cc(O)cc(O)c2)cc1 [resveratrol, 3,4′,5-trihydroxystilbene, reference compound]
IC50 (NF-κB [1]; [8]): 20000 ± 3000 nM
Inhibition of LPS-induced COX-2 mRNA (COX-2 mRNA; 4 μM): about 50%
Suppression of LPS-induced COX-2 mRNA (COX-2 mRNA; 20 μM): markedly suppressed
Effect on TPA-induced AP-1 activation, in words (AP-1; 293T/AP-1-luc cells, TPA 10 ng/ml, 24 hours): activated

COc1ccc(/C=C/c2ccc(C)cc2)cc1 [6d, (E)-4′-Methoxy-4-methylstilbene]
IC50 (NF-κB [1]; [8]): 900 ± 100 nM

COc1ccc(/C=C/c2ccc(O)c(O)c2)cc1 [6x, (E)-3,4-Dihydroxy-4′-methoxystilbene]
IC50 (NF-κB [1]; [8]): 600 ± 400 nM
Activity as inhibitor of TNFα-induced activation of NF-κB in the screen, in words (NF-κB [1]): considerably more active than resveratrol

COc1ccc(/C=C/c2ccc(OC)cc2)cc1 [6b, (E)-4,4′-Dimethoxystilbene]
Activity as inhibitor of TNFα-induced activation of NF-κB in the screen, in words (NF-κB [1]): retained very little activity

COc1ccc(/C=C/c2ccccc2F)cc1 [6p, (E)-2-Fluoro-4′-methoxystilbene]
IC50 (NF-κB [1]; [8]): 150 nM
Anti-oxidant activity in the TRAP assay, in words [2]: does not exhibit anti-oxidant activity
Anti-oxidant activity in the FRAP assay, in words [3]: does not exhibit anti-oxidant activity
Inhibition of LPS-induced COX-2 mRNA, in words (COX-2 mRNA): almost as effective as 4 μM resveratrol
outcome ([4]; K9, Pempigus, 1% lotion): positive
outcome ([4]; K9, atopy, 1% lotion): positive
outcome ([4]; K9, hemangiosarcoma, 1% lotion): positive
outcome ([4]; K9, hot spot, 1% lotion): positive
outcome ([4]; K9, peri-analfistual, 1% lotion): positive
Nasal planum lesion after treatment ([4]; animal 1139, daily application, after 10 applications): the region was healing, the dried, flaking skin was gone and there was no bleeding
Peri-anal fistula healing ([4]; animal 3688, LD55 with combinations of standard forms of treatment, two weeks): nearly resulted in the fistula healing and closing
Inflammatory component of pathology (redness/itching, discomfort) ([4]; dogs, 1% lotion, all treated animals except two dogs with unknown outcome): marked improvement
outcome ([5]; atopy/ears, 1% lotion): positive
outcome ([5]; squamous cell carcinoma, 1% lotion): positive
Time for redness to disappear ([5]; animal 255, severe allergies, ears and face, applied twice a day): ≤ 24 h
Inflammatory component of pathology (redness/itching, discomfort) ([5]; cats, 1% lotion): marked improvement
Ability to prevent brain inflammation and plaque accumulation [6]: effective

COc1ccc(/C=C/c2cc(OC)cc(OC)c2)cc1 [6f, (E)-3,4′,5-Trimethoxystilbene]
Activity as inhibitor of TNFα-induced activation of NF-κB in the screen, in words (NF-κB [1]): especially active
IC50 (AP-1; 24 h, read-out: IC50 for inhibition of the TPA-induced activation of AP-1): 3.8 ± 1.1 µM

C(=Cc1ccccc1)c1ccccc1 [stilbene]
Inhibition of TNF-induced activation of NF-κB (NF-κB [7]): inactive

COc1ccc(/C=C/c2cccc(C)c2)cc1 [6i, (E)-4′-Methoxy-3-methylstilbene]
IC50 (NF-κB [1]; [8]): 800 ± 200 nM

COc1ccc(/C=C/c2ccccc2)cc1O [4s, (E)-3-Hydroxy-4-methoxystilbene]
Activity as inhibitor of TNFα-induced activation of NF-κB in the screen, in words (NF-κB [1]): considerably more active than resveratrol

COc1ccc(/C=C/c2ccccc2)c(OC)c1 [4u, (E)-2,4-Dimethoxystilbene]
Activity as inhibitor of TNFα-induced activation of NF-κB in the screen, in words (NF-κB [1]): especially active

O=C(/C=C/c1ccncc1)/C=C/c1ccncc1 [reference compound]
IC50 (NF-κB [1]; TNFα-induced activation of NF-κB, Panomics reporter screening cells, read-out: NFκB IC50 (Tables 1A and 2A)): 3900 ± 300 nM
IC50 (AP-1; AP1, TPA-induced activation of AP-1, Panomics reporter screening cells, read-out: AP-1 IC50 (Tables 1A and 2A)): 8.2 ± 0.3 µM

COc1ccc(/C=C/c2cccc(OC)c2)cc1 [6r, (E)-3,4′-Dimethoxystilbene]
IC50 (NF-κB [1]; [8]): 600 ± 100 nM
Activity as inhibitor of TNFα-induced activation of NF-κB in the screen, in words (NF-κB [1]): especially active; also recorded: highly active

CN(C)c1ccc(/C=C/c2ccccc2)cc1 [4cc, (E)-4-N,N-Dimethylaminostilbene]
IC50 (NF-κB [1]; [8]): 150 nM
Anti-oxidant activity in the TRAP assay, in words [2]: retained anti-oxidant activity; also recorded: exhibits anti-oxidant activity
Anti-oxidant activity in the FRAP assay, in words [3]: retained anti-oxidant activity; also recorded: exhibits anti-oxidant activity
Inhibition of LPS-induced COX-2 mRNA, in words (COX-2 mRNA): almost as effective as 4 μM resveratrol

COc1ccc(/C=C/c2ccccc2)cc1 [4b, (E)-4-Methoxystilbene]
Activity as inhibitor of TNFα-induced activation of NF-κB in the screen, in words (NF-κB [1]): especially active

COc1ccc(/C=C/c2cccc(Cl)c2)cc1 [6h, (E)-3-Chloro-4′-methoxystilbene]
IC50 (NF-κB [1]; [8]): 1000 ± 100 nM

COc1ccc(/C=C/c2ccccc2Cl)cc1 [6j, (E)-2-Chloro-4′-methoxystilbene]
IC50 (NF-κB [1]; [8]): 1500 ± 30 nM

COc1cccc(/C=C/c2ccccc2)c1OC [4o, (E)-2,3-Dimethoxystilbene]
Activity as inhibitor of TNFα-induced activation of NF-κB in the screen, in words (NF-κB [1]): retained very little activity
